# Experimental data taken from PMC7395068, “The evolution of strategies to minimise the risk of human drug-induced liver injury (DILI) in drug discovery and development” (Archives of Toxicology, 2020).
# Like-named read-outs stand apart in the source and are kept apart here.
# How the values were obtained:
# [1] = Plasma free fraction (fu) and unbound Cmax (Cmax,u); type: in vitro ADME, human; conditions: unbound plasma Cmax
# [2] = cited from earlier work
# HepG2 cells = conditions: cited from earlier work
# PHH = conditions: cited from earlier work
# hLiMTs [3] = conditions: cited from earlier work
# PHH spheroids = conditions: cited from earlier work
# [4] = system: HepG2 C3A spheroid, BSEP, Glu/Gal in HepG2 cells, bioactivation; conditions: cited from earlier work
# [5] = read-out: Human plasma Cmax; total plasma Cmax.tot, median of 9 literature references; cited from earlier work
# [6] = plasma free fraction; cited from earlier work
# [7] = cited from earlier work; remark: listed apart in the source
# [8] = system: THLE-Null and THLE-3A4 cells; conditions: In vitro Assay; ref Gustafsson 2014; cited from earlier work
# [9] = system: isolated mouse liver mitochondria; conditions: In vitro Assay; ref Porceddu 2012; cited from earlier work
# rBsep = conditions: In vitro Assay; ref Dawson 2012; cited from earlier work
# hLiMTs [10] = test: Combined HCI (HCS) and cellular ATP 3D assay in hLiMTs; conditions: for AC50: Homo sapiens
# HepaRG spheroids = test: Combined HCI (HCS) and cellular ATP 3D assay in HepaRG spheroids; conditions: for AC50: Homo sapiens
# [11] = In vitro Assay, ref Proctor 2017
# [12] = Microtissue model structural based (HCI), combined HCS and ATP, MEC < 25 × Cmax.tot cut-off
structure (smiles),measurement,setting,value
Clc1ccccc1CN1CCc2sccc2C1 [ticlopidine],"Human plasma Cmax,u",[1],0.161 µM
same,DILI severity category (Chen et al. [2016]),"[2]; LTKB DILIrank category, ref Chen et al. 2016",Most
same,DILI severity category,"[2]; human DILI severity, ref Chen et al.",Most
same,"DILI +VE (5-8), DILI -VE (-4)",[2]; ref Chen 2016,+VE
same,DILI severity category,[2]; ref Chen 2016,vMost-DILI-Concern
same,Structural based (HCI),"HepG2 cells; In vitro Assay, ref Tolosa 2012",+VE
same,"DILI in vitro assay prediction, Tolosa (2012)","HepG2 cells; Structural based (HCI), HepG2, ref Tolosa et al. 2012",+VE
same,"PHH/100uM, Proctor (2017)","PHH; 2D PHH, ATP, IC50 threshold 100 µM, ref Proctor et al. 2017",-VE
same,PHH ATP <100uM,PHH; [11],-VE
same,hLiMTs ATP <100uM,hLiMTs [3]; [11],+VE (IC50 threshold of 100 µM)
same,"hLiMTs/100uM, Proctor (2017)","hLiMTs [3]; hLiMTs, ATP, IC50 threshold 100 µM, ref Proctor et al. 2017",-VE
same,hLiMTs ATP <20 x Cmax,"PHH spheroids; In vitro Assay, ref Vorrink 2018",+VE (IC20 < 20 × Cmax.tot cut-off)
same,"DILI in vitro assay prediction, Vorrink (2018)","PHH spheroids; PHH spheroids, ATP, 14 days, IC20 < 20 × Cmax.tot, ref Vorrink et al. 2018",+VE (IC20 < 20 × Cmax.tot cut-off)
same,"Bayesian Machine Learning DILI prediction, Williams (2019)","[4]; Bayesian modeling, ref Williams et al. 2019",+VE
same,Bayesian Machine Learning,"[4]; In vitro Assay, ref Williams 2019",+VE
same,Cmax,[5],8.07 µM
same,fu,[6],0.020
same,Assigned DILI category,"[7]; Chen et al. 2016 or literature alignment, ref Chen et al. 2016",3
same,In vivo DILI,[7]; […],+VE
same,In vivo DILI,[7]; ref Dawson 2012,+VE
same,In vivo DILI,[7]; ref Garside 2014,+VE
same,In vivo DILI,[7]; ref Gustafsson 2014,+VE
same,In vivo DILI,[7]; ref Porceddu 2012,+VE
same,In vivo DILI,[7]; ref Proctor 2017,+VE
same,In vivo DILI,[7]; ref Tolosa 2012,+VE
same,In vivo DILI,[7]; ref Vorrink 2018,+VE
same,In vivo DILI,[7]; ref Williams 2019,+VE
same,In vivo DILI,[7]; ref Xu 2008,+VE
same,THLE-Null,[8],+VE
same,in vitro data EC2<=1x Cmax,[9],+VE
same,in vitro data EC20<=2uM,[9],+VE
same,Inhibition of rBsep cutoff<1& cmax u>.2,rBsep,+VE
same,Inhibition of rBsep cutoff<3,rBsep,+VE
same,AC50,hLiMTs [10]; read-out: ATP endpoint AC50,10.7 µM
same,AC50,hLiMTs [10]; read-out: HCS endpoint AC50,115 µM
same,DILI prediction hLiMTs (HCS-MEC),hLiMTs [10]; [12],+VE (MEC < 25 × Cmax.tot cut-off)
same,hLiMTs <25x Avg Cmax ATP,"hLiMTs [10]; hLiMTs, ATP endpoint, cut-off <25x Avg Cmax",+ve
same,hLiMTs <100x Avg Cmaxu ATP,"hLiMTs [10]; hLiMTs, ATP endpoint, cut-off <100x Avg Cmaxu",+ve (<100x Avg Cmaxu)
same,hLiMTs <25x Avg Cmax HCS,"hLiMTs [10]; hLiMTs, HCS endpoints, cut-off <25x Avg Cmax",+ve
same,hLiMTs <100x Avg Cmaxu HCS,"hLiMTs [10]; hLiMTs, HCS endpoints, cut-off <100x Avg Cmaxu",-ve
same,hLiMTs <25x Avg Cmax All,"hLiMTs [10]; hLiMTs, all endpoints (ATP and HCS), cut-off <25x Avg Cmax",+ve
same,hLiMTs Cmax max All,"hLiMTs [10]; hLiMTs, all endpoints, Cmax max used",+ve
same,hLiMTs Cmax min All,"hLiMTs [10]; hLiMTs, all endpoints, Cmax min used",+ve
same,hLiMTs <10 uM All,"hLiMTs [10]; hLiMTs, all endpoints, cut-off <10 uM",+ve (<10 uM)
same,hLiMTs <100x Avg Cmaxu All,"hLiMTs [10]; hLiMTs, all endpoints, cut-off <100x Avg Cmaxu",+ve (<100x Avg Cmaxu)
same,HepaRG <25x Avg Cmax ATP,"HepaRG spheroids; HepaRG, ATP endpoint, cut-off <25x Avg Cmax",+ve
same,HepaRG <100x Avg Cmaxu ATP,"HepaRG spheroids; HepaRG, ATP endpoint, cut-off <100x Avg Cmaxu",-ve
same,HepaRG <25x Avg Cmax HCS,"HepaRG spheroids; HepaRG, HCS endpoints, cut-off <25x Avg Cmax",+ve
same,HepaRG <100x Avg Cmaxu HCS,"HepaRG spheroids; HepaRG, HCS endpoints, cut-off <100x Avg Cmaxu",-ve
same,HepaRG <25x Avg Cmax All,"HepaRG spheroids; HepaRG, all endpoints (ATP and HCS), cut-off <25x Avg Cmax",+ve
same,HepaRG Cmax max All,"HepaRG spheroids; HepaRG, all endpoints, Cmax max used",+ve
same,HepaRG Cmax min All,"HepaRG spheroids; HepaRG, all endpoints, Cmax min used",+ve
same,HepaRG <10 uM All,"HepaRG spheroids; HepaRG, all endpoints, cut-off <10 uM",-ve
same,HepaRG <100x Avg Cmaxu All,"HepaRG spheroids; HepaRG, all endpoints, cut-off <100x Avg Cmaxu",-ve
same,AC50,"HepaRG spheroids; HepaRG, read-out: ATP endpoint AC50",56 µM
same,AC50,"HepaRG spheroids; HepaRG, read-out: HCS endpoint AC50",60.8 µM
same,DILI prediction HepaRG spheroids (HCS-MEC),HepaRG spheroids; [12],+VE (MEC < 25 × Cmax.tot cut-off)
